The results in this text go back to article PMC4010497, “Synthesis and Evaluation of Fluorine-Substituted Phenyl Acetate Derivatives as Ultra-Short Recovery Sedative/Hypnotic Agents” (PLoS ONE, 2014).

Data set [1] has as its system rat. The experiment in a line: Therapeutic index (LD50/HD50) in rat. Format: in vivo. Here is the method: The LD50 was determined in mice, rats, and rabbits and the TI was calculated as LD50/HD50.
Data set [2] can be described thus: In vitro metabolic half-life in rabbit whole blood. Format: in vitro ADME. To be noted: male, New Zealand White rabbit (n = 3), 37°C, read-out: Mean t1/2 Value. Here is the method:
(§1) Human whole blood stability experiments were conducted in whole blood from four human donors (male, 18–25 years). Single experiments were conducted with pooled blood from Sprague-Dawley rats (male, 8 weeks, n = 3), New Zealand White rabbits (male, 8–10 weeks, n = 3), Beagle dogs (male, 2–3 years, n = 3) and Cynomolgus monkeys (male, 3–4 years, n = 3). All the blood samples were provided by Xuzhou Medical College. A 1.35-ml aliquot of blood was warmed at 37°C for 5 min and hypnotic (from a 40 mM stock in DMSO solution) was added to a final concentration of 200 µM. After the specified incubation time, a 150-µl sample was removed and the metabolic reaction was quenched using 150-µl acetonitrile. Zero time-point samples were prepared by adding 150-µl acetonitrile (using a 4 mM stock in DMSO) to 150-µl blood before addition of the hypnotic. The quenched samples were centrifuged, and the supernatant was separated and stored at −20°C until analyzed. Hypnotic concentrations in thawed samples were determined by high-performance liquid chromatography using a 3-µm phenyl 4.6×50-mm C-A-25, ACE column with the UV detector set at 240 nm. […] The lower limit of quantitation of this assay is 3 µM and the accuracy within 15% at 10 µM. The metabolic half-lives were quantified from the incubation time-dependent change in drug concentration.

Data set [3] concerns rabbits. The data set can be described thus: Hypnotic potency and recovery after IV bolus in rabbits. Format: in vivo, rabbit. As for the experimental part:
All tests were performed during the light period. Groups of mice, rats and rabbits were injected intravenously (lateral tail vein) over 10 s with each dose of test compound, placed in separate boxes to reduce external stimuli and assessed for the loss of righting reflex. Dosing was performed using mg/kg scheme. A set of dose levels was chosen, and depending on whether the loss of righting reflex was observed, extra doses were introduced to provide data for the loss of righting reflex over a narrow dose range to allow potency calculations.
Immediately following the injection, the mice, rats and rabbits were tested for loss of righting reflex. […] Once a loss was observed, the interval between the loss of righting reflex and the return to righting reflex was recorded. […] To compare the duration of LORR of each compound at equipotent doses, groups of mice, rats and rabbits were injected with each compound at 2× HD50 over 10 s.
Time to walk was the time required after righting before mice and rabbits walked from the center to the periphery of a 30-cm diameter dise.

A short description of data set [4]: In vitro metabolic half-life in human whole blood. Format: in vitro ADME. To be noted: male, Human (n = 4), 37°C, read-out: Mean t1/2 Value. As for the experimental part: as §1

The compound `CCOc1cc(CC(=O)OCC(F)(F)F)ccc1OCC(=O)N(CC)CC` [Compound 5j, 2,2,2-trifluoroethyl 2-(4-(2-(diethylamino)-2-oxoethoxy)-3-ethoxyphenyl)acetate] showed a TI in data set [1] of 13.3. Further, the half-life at 200 µM in data set [2] was 11.6 ± 1.6 min; in data set [4], 25.5 ± 5.6 min. The “Duration of LORR” value in data set [3] (2× HD50 dose, mean ± SD) is 208.3 ± 19.8 s. The compound also registered a Time to walk in data set [3] (2× HD50 dose, mean ± SD) of 15.5 ± 7.5 s. The HD50 in data set [3] (IV, 95% confidence limits) is reported as 6.2 (4.7∼7.0) mg/kg.
